# Experimental data: US9161988B2, “Multimeric peptide conjugates and uses thereof” (Angiochem Inc., priority 2009, dated 2015)
# Legend:
# [1] = in situ brain perfusion assay, Angiopep-1 dimer vs Angiopep-2; format: in vivo
# Procedure: Volume of brain parenchymal distribution was measured using the in situ brain perfusion assay (FIG. 6). […] Parenchymal uptake of the Angiopep-1 dimer and Angiopep-2 was also measured at various concentrations in situ (FIG. 7).
# [2] = relative to Angiopep-1 (250 nM); threshold defining 'efficiently transported across the BBB'; cited from earlier work
Compound,"Volume of brain parenchymal distribution ([1]; as compared to monomeric Angiopep-2, especially at lower concentrations, FIG. 6)","Parenchymal uptake ([1]; various concentrations in situ, especially at lower concentrations (<500 nmol), compared to Angiopep-2 monomer, FIG. 7)",transport across the BBB relative to Angiopep-1 [2] [%]
C[C@@H](O)[C@H](N)C(=O)N[C@@H](Cc1ccccc1)C(=O)N[C@@H](Cc1ccccc1)C(=O)N[C@@H](Cc1ccc(O)cc1)C(=O)NCC(=O)NCC(=O)N[C@@H](CSSC[C@H](NC(=O)CNC(=O)CNC(=O)[C@H](Cc1ccc(O)cc1)NC(=O)[C@H](Cc1ccccc1)NC(=O)[C@H](Cc1ccccc1)NC(=O)[C@@H](N)[C@@H](C)O)C(=O)N[C@@H](CCCNC(=N)N)C(=O)NCC(=O)N[C@@H](CCCCN)C(=O)N[C@@H](CCCNC(=N)N)C(=O)N[C@@H](CC(N)=O)C(=O)N[C@@H](CC(N)=O)C(=O)N[C@@H](Cc1ccccc1)C(=O)N[C@@H](CCCCN)C(=O)N[C@H](C(=O)N[C@@H](CCC(=O)O)C(=O)N[C@@H](CCC(=O)O)C(=O)N[C@@H](Cc1ccc(O)cc1)C(N)=O)[C@@H](C)O)C(=O)N[C@@H](CCCNC(=N)N)C(=O)NCC(=O)N[C@@H](CCCCN)C(=O)N[C@@H](CCCNC(=N)N)C(=O)N[C@@H](CC(N)=O)C(=O)N[C@@H](CC(N)=O)C(=O)N[C@@H](Cc1ccccc1)C(=O)N[C@@H](CCCCN)C(=O)N[C@H](C(=O)N[C@@H](CCC(=O)O)C(=O)N[C@@H](CCC(=O)O)C(=O)N[C@@H](Cc1ccc(O)cc1)C(N)=O)[C@@H](C)O [Angiopep-1 dimer],Great uptake volumes,higher transport than the Angiopep-2 monomer,–
"Angiopep-6: peptide vector, SEQ ID NO:111, T F F Y G G S R G K R N N F R T E E Y (TFFYGGSRGKRNNFRTEEY)",–,–,38.5
